#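 In this assay, cells in 96-well plates receive the compound at five concentrations for 48 hours. Endpoints are linearly interpolated between the surrounding concentrations. TGI marks complete inhibition of growth.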 *1 amine or outer side, *2 acyl side, *3 side chain or, on linkers, in order; H or OH if unused. Where a SMILES comes first, the peptide text is derived from it. [ ]: non-standard residue; d: D form. The star is where a group is joined. X31 = CC(=O)N(C)SCC(N[*:1])C(=O)[*:2]; Cbz = O=C(OCc1ccccc1)*; Bn = c1ccc(C*)cc1
# Columns and labels:
# Assay in all cases: growth of human tumour cells (NCI), 48 h
# OVCAR-8 ovarian = system: OVCAR-8 ovarian
# SK-OV-3 ovarian = system: SK-OV-3 ovarian
# SK-MEL-28 melanoma = system: SK-MEL-28 melanoma
# 786-0 renal = system: 786-0 renal
# RXF 393 renal = system: RXF 393 renal
# HS 578T breast = system: HS 578T breast
# TK-10 renal = system: TK-10 renal
# UACC-62 melanoma = system: UACC-62 melanoma
# ACHN renal = system: ACHN renal
# OVCAR-4 ovarian = system: OVCAR-4 ovarian
# SR leukemia = system: SR leukemia
# NCI/ADR-RES ovarian = system: NCI/ADR-RES ovarian
# U251 CNS = system: U251 CNS
# SNB-19 CNS = system: SNB-19 CNS
# MCF7 breast = system: MCF7 breast
# HOP-92 NSCLC = system: HOP-92 NSCLC
# UO-31 renal = system: UO-31 renal
# OVCAR-5 ovarian = system: OVCAR-5 ovarian
# SF-295 CNS = system: SF-295 CNS
# LOX IMVI melanoma = system: LOX IMVI melanoma
# SN12C renal = system: SN12C renal
# HT29 colon = system: HT29 colon
# NCI-H226 lung = system: NCI-H226 lung
# BT-549 breast = system: BT-549 breast
# SK-MEL-5 melanoma = system: SK-MEL-5 melanoma
# SNB-75 CNS = system: SNB-75 CNS
# SF-268 CNS = system: SF-268 CNS
# COLO 205 colon = system: COLO 205 colon
# OVCAR-3 ovarian = system: OVCAR-3 ovarian
# T-47D breast = system: T-47D breast
# NCI-H23 lung = system: NCI-H23 lung
# HOP-62 NSCLC = system: HOP-62 NSCLC
# HL-60(TB) leukemia = system: HL-60(TB) leukemia
# K-562 leukemia = system: K-562 leukemia
# HCT-15 colon = system: HCT-15 colon
# SK-MEL-2 melanoma = system: SK-MEL-2 melanoma
# UACC-257 melanoma = system: UACC-257 melanoma
# IGROV1 ovarian = system: IGROV1 ovarian
# MOLT-4 leukemia = system: MOLT-4 leukemia
# A549 NSCLC = system: A549 NSCLC
# MDA-MB-435 = system: MDA-MB-435
# EKVX NSCLC = system: EKVX NSCLC
# PC-3 prostate = system: PC-3 prostate
# HCC-2998 colon = system: HCC-2998 colon
# NCI-H460 lung = system: NCI-H460 lung
# MDA-MB-231 breast = system: MDA-MB-231 breast
# MALME-3M melanoma = system: MALME-3M melanoma
# M14 melanoma = system: M14 melanoma
# SF-539 CNS = system: SF-539 CNS
# RPMI-8226 leukemia = system: RPMI-8226 leukemia
# CCRF-CEM leukemia = system: CCRF-CEM leukemia
# SW-620 colon = system: SW-620 colon
# KM12 colon = system: KM12 colon
# DU-145 prostate = system: DU-145 prostate
# MDA-N = system: MDA-N
# HCT-116 colon = system: HCT-116 colon
# A498 renal = system: A498 renal
# CAKI-1 renal = system: CAKI-1 renal
# NCI-H522 lung = system: NCI-H522 lung
compound,measurement,setting,value
CC(=O)N(C)SCC(NC(=O)C(Cc1ccccc1)NC(=O)OCc1ccccc1)C(=O)NC(Cc1ccccc1)C(=O)NC(Cc1c[nH]c2ccccc12)C(=O)NC(CCCCNC(=O)OCc1ccccc1)C(=O)NC(C(=O)NC(CSN(C)C(C)=O)C(=O)NC(C(N)=O)C(C)OCc1ccccc1)C(C)OCc1ccccc1 (configuration not stated) (Cbz-F[X31]FWK(Cbz)T(Bn)[X31]T(Bn)-NH2; configuration not given here),TGI,OVCAR-8 ovarian,> 100 µM
same,TGI,SK-OV-3 ovarian,> 100 µM
same,TGI,SK-MEL-28 melanoma,> 100 µM
same,TGI,786-0 renal,> 100 µM
same,TGI,RXF 393 renal,> 100 µM
same,TGI,HS 578T breast,> 100 µM
same,TGI,TK-10 renal,> 100 µM
same,TGI,UACC-62 melanoma,> 100 µM
same,TGI,ACHN renal,> 100 µM
same,TGI,OVCAR-4 ovarian,> 100 µM
same,TGI,SR leukemia,> 100 µM
same,TGI,NCI/ADR-RES ovarian,> 100 µM
same,TGI,U251 CNS,> 100 µM
same,TGI,SNB-19 CNS,> 100 µM
same,TGI,MCF7 breast,> 100 µM
same,TGI,HOP-92 NSCLC,> 100 µM
same,TGI,UO-31 renal,> 100 µM
same,TGI,OVCAR-5 ovarian,> 100 µM
same,TGI,SF-295 CNS,> 100 µM
same,TGI,LOX IMVI melanoma,> 100 µM
same,TGI,SN12C renal,> 100 µM
same,TGI,HT29 colon,> 100 µM
same,TGI,NCI-H226 lung,> 100 µM
same,TGI,BT-549 breast,> 100 µM
same,TGI,SK-MEL-5 melanoma,> 100 µM
same,TGI,SNB-75 CNS,> 100 µM
same,TGI,SF-268 CNS,> 100 µM
same,TGI,COLO 205 colon,> 100 µM
same,TGI,OVCAR-3 ovarian,> 100 µM
same,TGI,T-47D breast,> 100 µM
same,TGI,NCI-H23 lung,> 100 µM
same,TGI,HOP-62 NSCLC,> 100 µM
same,TGI,HL-60(TB) leukemia,> 100 µM
same,TGI,K-562 leukemia,> 100 µM
same,TGI,HCT-15 colon,> 100 µM
same,TGI,SK-MEL-2 melanoma,> 100 µM
same,TGI,UACC-257 melanoma,> 100 µM
same,TGI,IGROV1 ovarian,> 100 µM
same,TGI,MOLT-4 leukemia,> 100 µM
same,TGI,A549 NSCLC,> 100 µM
same,TGI,MDA-MB-435,> 100 µM
same,TGI,EKVX NSCLC,> 100 µM
same,TGI,PC-3 prostate,> 100 µM
same,TGI,HCC-2998 colon,> 100 µM
same,TGI,NCI-H460 lung,> 100 µM
same,TGI,MDA-MB-231 breast,> 100 µM
same,TGI,MALME-3M melanoma,> 100 µM
same,TGI,M14 melanoma,> 100 µM
same,TGI,SF-539 CNS,> 100 µM
same,TGI,RPMI-8226 leukemia,> 100 µM
same,TGI,CCRF-CEM leukemia,> 100 µM
same,TGI,SW-620 colon,> 100 µM
same,TGI,KM12 colon,> 100 µM
same,TGI,DU-145 prostate,> 100 µM
same,TGI,MDA-N,> 100 µM
same,TGI,HCT-116 colon,> 100 µM
CC1OC(OC2C(OC3CCC4(C)C(CCC5(C)C4CC=C4C6CC(C)(C)CCC6(C(=O)O)CCC45C)C3(C)CO)OCC(O)C2O)C(O)C(O)C1O (configuration not stated),TGI,OVCAR-8 ovarian,40.1 µM
same,TGI,SK-OV-3 ovarian,33.5 µM
same,TGI,SK-MEL-28 melanoma,39.8 µM
same,TGI,786-0 renal,> 100 µM
same,TGI,RXF 393 renal,11.6 µM
same,TGI,HS 578T breast,31.8 µM
same,TGI,TK-10 renal,40.8 µM
same,TGI,UACC-62 melanoma,26.1 µM
same,TGI,ACHN renal,37.5 µM
same,TGI,OVCAR-4 ovarian,30.5 µM
same,TGI,SR leukemia,9.74 µM
same,TGI,NCI/ADR-RES ovarian,43.4 µM
same,TGI,U251 CNS,50.3 µM
same,TGI,SNB-19 CNS,32.3 µM
same,TGI,MCF7 breast,1.91 µM
same,TGI,HOP-92 NSCLC,27.3 µM
same,TGI,UO-31 renal,13.1 µM
same,TGI,OVCAR-5 ovarian,38.4 µM
same,TGI,SF-295 CNS,32 µM
same,TGI,LOX IMVI melanoma,53.5 µM
same,TGI,SN12C renal,42 µM
same,TGI,HT29 colon,44.7 µM
same,TGI,NCI-H226 lung,49.6 µM
same,TGI,BT-549 breast,35 µM
same,TGI,A498 renal,31.1 µM
same,TGI,SK-MEL-5 melanoma,36.3 µM
same,TGI,CAKI-1 renal,36.6 µM
same,TGI,SNB-75 CNS,30.7 µM
same,TGI,SF-268 CNS,37.6 µM
same,TGI,COLO 205 colon,44.4 µM
same,TGI,OVCAR-3 ovarian,81.9 µM
same,TGI,T-47D breast,46.8 µM
same,TGI,NCI-H23 lung,33.1 µM
same,TGI,HOP-62 NSCLC,> 100 µM
same,TGI,K-562 leukemia,44.7 µM
same,TGI,HCT-15 colon,42.1 µM
same,TGI,SK-MEL-2 melanoma,33.3 µM
same,TGI,UACC-257 melanoma,41.2 µM
same,TGI,IGROV1 ovarian,32.9 µM
same,TGI,MOLT-4 leukemia,45.8 µM
same,TGI,A549 NSCLC,38.2 µM
same,TGI,MDA-MB-435,43 µM
same,TGI,EKVX NSCLC,40 µM
same,TGI,PC-3 prostate,29.1 µM
same,TGI,HCC-2998 colon,30.8 µM
same,TGI,NCI-H460 lung,43 µM
same,TGI,MDA-MB-231 breast,35.4 µM
same,TGI,MALME-3M melanoma,37.5 µM
same,TGI,SF-539 CNS,32.8 µM
same,TGI,CCRF-CEM leukemia,18.3 µM
same,TGI,NCI-H522 lung,28.8 µM
same,TGI,SW-620 colon,55.4 µM
same,TGI,KM12 colon,21.7 µM
same,TGI,DU-145 prostate,42.3 µM
same,TGI,MDA-N,39.9 µM
same,TGI,HCT-116 colon,> 100 µM
